Laboratory results as given in patent US11234437B2 (priority 2017, dated 2022).

Experiments:
[1] = tested on: Magnaporthe grisea (Pyricularia oryzae); experiment: microbe, parasite or virus in culture; format: cell-based; settings: read-out: control of Magnaporthe grisea
[2] = tested on: Gibberella zeae (Fusarium graminearum); experiment: whole plant or invertebrate; format: in vivo; settings: in Triticum aestivum, read-out: control of Gibberella zeae
[3] = tested on: Monographella nivalis (Microdochium nivale); experiment: Monographella nivalis (Microdochium nivale) / liquid culture (foot rot cereals); format: cell-based; settings: compared to untreated control
Method: Monographella nivalis (Microdochium nivale)/Liquid Culture (Foot Rot Cereals)
Conidia of the fungus from cryogenic storage are directly mixed into nutrient broth (PDB potato dextrose broth). After placing a (DMSO) solution of test compound into a microtiter plate (96-well format), the nutrient broth containing the fungal spores is added. The test plates are incubated at 24° C. and the inhibition of growth is determined photometrically 4-5 days after application.

Compound | inhibition of growth at 20 ppm [1] [%] | pest or weed control at 200 ppm [2] [%] | inhibition of growth at 20 ppm [3] [%]
CC(C)(F)CC(C)(Cc1ccccc1)NC(=O)c1cnc2c(F)cccc2c1 (centres unmarked) [X.015, N-(1-benzyl-3-fluoro-1,3-dimethyl-butyl)-8-fluoro-quinoline-3-carboxamide] | ≥ 80 | ≥ 80 | ≥ 80
C[C@@](Cc1ccccc1)(CC(F)(F)F)NC(=O)c1cnc2c(Cl)cccc2c1 [Compound F-20, N-[(1R)-1-benzyl-3,3,3-trifluoro-1-methyl-propyl]-8-chloro-quinoline-3-carboxamide] | ≥ 80 | – | –
CC(C)C[C@](C)(Cc1ccccc1)NC(=O)c1cnc2c(F)c(F)ccc2c1 [Compound F-14, N-[(1R)-1-benzyl-1,3-dimethyl-butyl]-7,8-difluoro-quinoline-3-carboxamide] | ≥ 80 | – | –
C=C(C)C[C@](C)(Cc1ccccc1)NC(=O)c1cnc2c(F)c(F)ccc2c1 [Compound F-11, N-[(1R)-1-benzyl-1,3-dimethyl-but-3-enyl]-7,8-difluoro-quinoline-3-carboxamide] | ≥ 80 | ≥ 80 | –
CC(C)(F)C[C@](C)(Cc1ccccc1)NC(=O)c1cnc2c(F)cccc2c1 [Compound F-16, N-[(1S)-1-benzyl-3-fluoro-1,3-dimethyl-butyl]-8-fluoro-quinoline-3-carboxamide] | ≥ 80 | ≥ 80 | ≥ 80
C=C(C)C[C@@](C)(Cc1ccccc1)NC(=O)c1cnc2c(F)c(F)ccc2c1 [Compound F-12, N-[(1S)-1-benzyl-1,3-dimethyl-but-3-enyl]-7,8-difluoro-quinoline-3-carboxamide] | ≥ 80 | – | ≥ 80
C[C@](Cc1ccccc1)(CC(F)(F)F)NC(=O)c1cnc2c(F)cccc2c1 [Compound F-7, N-[(1S)-1-benzyl-3,3,3-trifluoro-1-methyl-propyl]-8-fluoro-quinoline-3-carboxamide] | ≥ 80 | ≥ 80 | –
CC(C)(F)C[C@@](C)(Cc1ccccc1)NC(=O)c1cnc2c(F)cccc2c1 [Compound F-15, N-[(1R)-1-benzyl-3-fluoro-1,3-dimethyl-butyl]-8-fluoro-quinoline-3-carboxamide] | ≥ 80 | ≥ 80 | ≥ 80
Cc1cccc2cc(C(=O)N[C@](C)(Cc3ccccc3)CC(F)(F)F)cnc12 [Compound F-18, N-[(1R)-1-benzyl-3,3,3-trifluoro-1-methyl-propyl]-8-methyl-quinoline-3-carboxamide] | ≥ 80 | – | –
CC(F)(F)C[C@@](C)(Cc1ccccc1)NC(=O)c1cnc2c(F)cccc2c1 [Compound F-31, N-[(1R)-1-benzyl-3,3-difluoro-1-methyl-butyl]-8-fluoro-quinoline-3-carboxamide] | ≥ 80 | ≥ 80 | ≥ 80
C[C@@](Cc1ccccc1)(CC(F)(F)F)NC(=O)c1cnc2c(F)cccc2c1 [Compound F-8, N-[(1R)-1-benzyl-3,3,3-trifluoro-1-methyl-propyl]-8-fluoro-quinoline-3-carboxamide] | ≥ 80 | – | –
CC(F)(F)CC(C)(Cc1ccccc1)NC(=O)c1cnc2c(F)cccc2c1 (centres unmarked) [X.014, N-(1-benzyl-3,3-difluoro-1-methyl-butyl)-8-fluoro-quinoline-3-carboxamide] | ≥ 80 | ≥ 80 | –
C[C@@](Cc1ccccc1)(CC(F)(F)F)NC(=O)c1cnc2c(F)c(F)ccc2c1 [Compound F-22, N-[(1R)-1-benzyl-3,3,3-trifluoro-1-methyl-propyl]-7,8-difluoro-quinoline-3-carboxamide] | ≥ 80 | ≥ 80 | –
C=C(C)C[C@](C)(Cc1ccccc1)NC(=O)c1cnc2c(F)cccc2c1 [Compound F-5, N-[(1R)-1-benzyl-1,3-dimethyl-but-3-enyl]-8-fluoro-quinoline-3-carboxamide] | ≥ 80 | ≥ 80 | ≥ 80
